# The SangsterLogP compilation
# Assay: not given
row,Compound,logP
1,Cc1nc2ccccc2c(=O)n1CC(=O)Nc1ccc(S(=O)(=O)NC(=N)N)cc1,0.09
2,Cc1cc(C)nc(NS(=O)(=O)c2ccc(NC(=O)Cn3c(C)nc4ccccc4c3=O)cc2)n1,0.7
3,Cc1nc2ccccc2c(=O)n1CC(=O)NCc1ccccc1,1.78
4,COC(=O)c1cc(NC(=O)Cn2c(C)nc3ccccc3c2=O)cc(C(=O)OC)c1,2.98
5,CCOC(=O)c1nc2ccccc2c(=O)[nH]1,0.64
6,CCOc1ccc(NC(=O)Cn2c(C)nc3ccccc3c2=O)cc1,2.19
7,Cc1nc2ccccc2c(=O)n1CC(=O)N1CCOCC1,0.45
8,Cc1nc2ccccc2c(=O)n1CC(=O)NCc1ccco1,1.24
9,COC(=O)c1ccc(C(=O)OC)c(NC(=O)Cn2c(C)nc3ccccc3c2=O)c1,3.53
10,COC(=O)CNC(=O)Cn1c(C)nc2ccccc2c1=O,0.44
11,Cc1nc2ccccc2c(=O)n1CC(=O)NNc1ccccc1,1.34
12,Cc1nc2ccccc2c(=O)n1CC(=O)Nc1c(C)n(C)n(-c2ccccc2)c1=O,1.07
13,Cc1nc2ccccc2c(=O)n1CC(=O)N1CCCCC1,1.42
14,CCN(CC)C(=O)Cn1c(C)nc2ccccc2c1=O,1.14

# Assay: method code SF, from PMID: 10544519
row,Compound,logP
1,Cc1nc2ccccc2c(=O)n1CCC(=O)O,0.64
2,Cc1nc2ccccc2c(=O)n1CC(=O)O,0.08
3,COC(=O)Cn1c(C)nc2ccccc2c1=O,1.46
